Data: patent US7408026B1, “Synthesis of proteins by native chemical ligation” (The Scripps Research Institute, priority 1998, dated 2008)

Test system: neutrophil elastase release
Assay: assay for neutrophil elastase release (titration)
Assay type: cell-based
Settings: compared with conventionally synthesized molecule and native sequence IL-8
Description: Application of the native chemical ligation method to the total synthesis of a protein molecule was illustrated by the preparation of human interleukin 8 (IL-8). (M. Baggiolini, et al., FEBS Lett. (1989): vol. 307, p 97; I. Clark-Lewis, et al., J. Biol. Chem. (1994): vol. 269, p 16075 (1994); I. Clark-Lewis, Biochemistry (1991): vol. 30, p 3128; and K. Rajarathnam, et al., (1994): Biochemistry, (1994): vol. 29, p 1689.) The 72 amino acid polypeptide chain contains four Cys residues, which form two functionally critical disulfide bridges in the native protein molecule. The two unprotected synthetic peptide segments reacted cleanly to give the full length polypeptide chain in reduced form without further chemical manipulation (9). This successful ligation was particularly significant because the 33- and 39-residue IL-8 segments each contained two Cys residues, and together encompassed 18 of the 20 genetically encoded amino acids found in proteins. The purified product was folded and oxidized as previously described, to give IL-8 with a mass precisely 4 daltons less than that of the original ligation product, indicating the formation of two disulfide bonds. The properties of this folded product were identical to those of previously studied authentic IL-8 samples.

[Ala33]IL-8: 72 amino acid human interleukin 8 analogue made by native chemical ligation of IL-8(1-33)αCOSBn and IL-8(34-72), then folded by air oxidation
maximal response in neutrophil elastase release: indistinguishable and identical to native sequence IL-8

corresponding molecule obtained by conventional synthesis: [Ala33]IL-8 obtained by conventional synthesis, used as comparator
maximal response in neutrophil elastase release: indistinguishable and identical to native sequence IL-8
